Laboratory results: ChEMBL document CHEMBL1201862, “PubChem BioAssay data set” (2004)
Several values for one entry are separate records, joined by “and”; a condition that tells them apart may be missing. Identical values can stand only once.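 Protocol summary: plate cells (96-well), add compound at 5 concentrations, incubate 48 h, interpolate endpoints linearly. GI50 is the concentration that inhibits growth by half.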 Activity calls are given as the source filed them. No stated cut-off is given here; in the data, active = GI50 up to about 1.1 µM and inactive = higher.

Legend:
Assay in all cases: inhibition of tumour cell growth, NCI panel, 48 h
HT-29 = test system: HT-29
NCI-H522 = test system: NCI-H522
LOX IMVI = test system: LOX IMVI
SF-268 = test system: SF-268
CAKI-1 = test system: CAKI-1
DU-145 = test system: DU-145
BT-549 = test system: BT-549
RPMI-8226 = test system: RPMI-8226
HL-60 = test system: HL-60
A498 = test system: A498
HCT-116 = test system: HCT-116
MOLT-4 = test system: MOLT-4
SK-MEL-28 = test system: SK-MEL-28
NCI-H23 = test system: NCI-H23
SF-539 = test system: SF-539
TK-10 = test system: TK-10
HCC 2998 = test system: HCC 2998
MDA-MB-231 = test system: MDA-MB-231
SK-OV-3 = test system: SK-OV-3

Measured: GI50

CCOC(=O)c1c(-c2ccc(O)c(OC)c2)c(C#N)c(=S)n(C2OC(COC(C)=O)C(OC(C)=O)C(OC(C)=O)C2OC(C)=O)c1-c1ccccc1 (configuration not stated)
inactive: HT-29 59.7 µM and 32.1 µM | NCI-H522 18.8 µM and 19.2 µM | LOX IMVI 35.4 µM and 48 µM | SF-268 > 100 µM and 70.6 µM | CAKI-1 65.2 µM | DU-145 38.5 µM and 35.2 µM | BT-549 57.7 µM and 32.6 µM | RPMI-8226 72.9 µM | HL-60 > 100 µM | A498 > 100 µM | HCT-116 47.9 µM and 63.2 µM | MOLT-4 48.9 µM and 31.9 µM | SK-MEL-28 58.2 µM | NCI-H23 43.7 µM and 61.1 µM

CNS(=O)(=O)NN(C)S(=O)(=O)c1ccc(Br)cc1
inactive: HT-29 > 100 µM | NCI-H522 > 100 µM | LOX IMVI > 100 µM | CAKI-1 > 100 µM | SF-539 > 100 µM | RPMI-8226 > 100 µM | HL-60 > 100 µM | A498 > 100 µM | HCT-116 > 100 µM | TK-10 > 100 µM | MOLT-4 > 100 µM | HCC 2998 > 100 µM | NCI-H23 > 100 µM

CC(C)CC1[C@@H](OCc2ccccc2)COS(=O)N1Cc1ccccc1 (some centres not stated)
inactive: HT-29 15.6 µM | MDA-MB-231 20.7 µM | LOX IMVI 24.8 µM | SF-268 32.6 µM | DU-145 35.6 µM | RPMI-8226 20.8 µM | HCT-116 28.2 µM | TK-10 40 µM | MOLT-4 37 µM | SK-MEL-28 51.3 µM | NCI-H23 39.6 µM | SK-OV-3 > 100 µM

CC1CN=C(N(C)C(=O)Nc2ccc(Cl)c(Cl)c2)S1 (configuration not stated)
inactive: HT-29 33 µM | MDA-MB-231 28.1 µM | LOX IMVI 17.5 µM | SF-268 27.9 µM | CAKI-1 7.53 µM | DU-145 44.8 µM | SF-539 17.7 µM | RPMI-8226 31.7 µM | HL-60 22.5 µM | A498 48.4 µM | HCT-116 39 µM | TK-10 26.8 µM | MOLT-4 27.9 µM | SK-MEL-28 16.6 µM | HCC 2998 38.6 µM | NCI-H23 32.3 µM | SK-OV-3 > 100 µM

CCN(CC)c1ccc2cc(-c3nnc(-c4ccccc4O)o3)c(=O)oc2c1
inactive: HT-29 11.7 µM | NCI-H522 5.43 µM | LOX IMVI 6.73 µM | SF-268 6.92 µM | CAKI-1 11.5 µM | DU-145 10.3 µM | BT-549 5.75 µM | SF-539 8.18 µM | RPMI-8226 14.6 µM | HL-60 4.56 µM | A498 13 µM | HCT-116 5.97 µM | MOLT-4 3.03 µM | SK-MEL-28 11.7 µM | HCC 2998 13.6 µM | NCI-H23 8.93 µM | SK-OV-3 17.1 µM

CCOC(=O)C(=O)/C(=C/NC(=S)Nc1ccc(Cl)c(Cl)c1)C(=O)OCC
inactive: HT-29 56.9 µM | MDA-MB-231 > 100 µM | LOX IMVI > 100 µM | SF-268 > 100 µM | CAKI-1 64.7 µM | DU-145 > 100 µM | SF-539 25.6 µM | RPMI-8226 17.9 µM | HL-60 15.9 µM | HCT-116 75 µM | TK-10 > 100 µM | MOLT-4 29.4 µM | SK-MEL-28 > 100 µM | NCI-H23 70 µM | SK-OV-3 > 100 µM

Cc1c(C(=O)CSc2nc3cc([N+](=O)[O-])ccc3[nH]2)c(=O)n(-c2ccccc2)n1C
inactive: HT-29 > 100 µM | NCI-H522 > 100 µM | LOX IMVI > 100 µM | SF-268 > 100 µM | CAKI-1 > 100 µM | SF-539 > 100 µM | RPMI-8226 > 100 µM | HL-60 > 100 µM | A498 > 100 µM | HCT-116 > 100 µM | TK-10 > 100 µM | MOLT-4 > 100 µM | SK-MEL-28 > 100 µM | HCC 2998 36.6 µM | NCI-H23 > 100 µM | SK-OV-3 > 100 µM

O=C(CSCC(=O)N/N=C\c1ccc(F)cc1F)N/N=C\c1ccc(F)cc1F
inactive: HT-29 > 100 µM | NCI-H522 > 100 µM | MDA-MB-231 > 100 µM | LOX IMVI > 100 µM | SF-268 > 100 µM | CAKI-1 > 100 µM | DU-145 > 100 µM | SF-539 > 100 µM | RPMI-8226 > 100 µM | HL-60 > 100 µM | A498 > 100 µM | HCT-116 > 100 µM | TK-10 > 100 µM | MOLT-4 > 100 µM | SK-MEL-28 > 100 µM | HCC 2998 > 100 µM | NCI-H23 > 100 µM | SK-OV-3 > 100 µM

O=C1C2=Cc3ccccc3CCN2c2ccc([N+](=O)[O-])cc21
inactive: HT-29 > 100 µM | NCI-H522 24 µM | MDA-MB-231 > 100 µM | LOX IMVI 92.7 µM | SF-268 91.4 µM | CAKI-1 69.3 µM | DU-145 96.2 µM | SF-539 82.6 µM | RPMI-8226 > 100 µM | HL-60 66.5 µM | A498 35.9 µM | HCT-116 > 100 µM | TK-10 83 µM | MOLT-4 45.7 µM | SK-MEL-28 > 100 µM | HCC 2998 > 100 µM | NCI-H23 38.5 µM

O=C(Nc1ccc(F)cc1)c1cc2ccc(O)cc2o/c1=N\c1cccc(F)c1
inactive: HT-29 > 100 µM | NCI-H522 16.4 µM | LOX IMVI 25.4 µM | SF-268 43.1 µM | CAKI-1 32.7 µM | DU-145 28.9 µM | BT-549 30.6 µM | SF-539 52.7 µM | RPMI-8226 14.8 µM | HL-60 27.3 µM | A498 43 µM | HCT-116 35.4 µM | MOLT-4 27.9 µM | SK-MEL-28 45.7 µM | HCC 2998 55.6 µM | NCI-H23 19.9 µM | SK-OV-3 51.6 µM

C=CCNC(=S)N/C=C(\C(=O)OCC)C(=O)C(=O)OCC
inactive: HT-29 > 100 µM | NCI-H522 > 100 µM | MDA-MB-231 > 100 µM | LOX IMVI > 100 µM | SF-268 > 100 µM | CAKI-1 > 100 µM | DU-145 > 100 µM | SF-539 > 100 µM | RPMI-8226 > 100 µM | HL-60 > 100 µM | HCT-116 > 100 µM | MOLT-4 > 100 µM | SK-MEL-28 > 100 µM | HCC 2998 > 100 µM | NCI-H23 > 100 µM | SK-OV-3 > 100 µM

CC1=[N+]([O-])C2(CCCC2)N(O)C1(C)C
inactive: HT-29 > 100 µM | MDA-MB-231 > 100 µM | LOX IMVI > 100 µM | SF-268 > 100 µM | CAKI-1 > 100 µM | DU-145 > 100 µM | SF-539 > 100 µM | RPMI-8226 > 100 µM | HL-60 > 100 µM | HCT-116 > 100 µM | TK-10 > 100 µM | SK-MEL-28 > 100 µM | HCC 2998 > 100 µM | NCI-H23 > 100 µM | SK-OV-3 > 100 µM
